Patent US20170015649A1, “N-Thio-anthranilamid compounds and their use as pesticides” (BASF SE, priority 2005, published 2017)

Tests used:
[1] = tested on: Oat Aphid (Rhopalosiphum padi); experiment: Activity against oat aphid, barley leaf disks; assay type: in vivo; conditions: 2500 ppm; leaf disks sprayed with 2.5 μl; 5 days; compared to 0% mortality of untreated controls
Description: Barlay leaf disk were placed into microtiterplates filled with 0.8% agar-agar and 2.5 ppm OPUS™. The leaf disks were sprayed with 2.5 μl of the test solution and 3 to 8 adult aphids were placed into the microtiterplates which were then closed and kept at 22-24° C. and 35-45% humidity under fluorescent light for 5 days. Mortality was assessed on the basis of vital aphids. Tests were replicated 2 times.

[2] = tested on: Tobacco Budworm (Heliothis virescens); experiment: whole plant or invertebrate; conditions: 144 h
[3] = tested on: Silverleaf Whitefly (Bemisia argentifolii); experiment: Activity against silverleaf whitefly, cotton cotyledon dip; assay type: in vivo; conditions: 72 h, cotyledons dipped, adults, 3 days after treatment
Description: (§1) The active compounds were formulated in 50:50 acetone:water and 100 ppm Kinetic™ surfactant.
Selected cotton plants were grown to the cotyledon state (one plant per pot). The cotyledons were dipped into the test solution to provide complete coverage of the foliage and placed in a well-vented area to dry. Each pot with treated seedling was placed in a plastic cup and 10 to 12 whitefly adults (approximately 3-5 day old) were introduced. The insects were collected using an aspirator and an 0.6 cm, non-toxic Tygon™ tubing (R-3603) connected to a barrier pipette tip. The tip, containing the collected insects, was then gently inserted into the soil containing the treated plant, allowing insects to crawl out of the tip to reach the foliage for feeding. The cups were covered with a reusable screened lid (150 micron mesh polyester screen PeCap from Tetko Inc). Test plants were maintained in the holding room at about 25° C. and 20-40% relative humidity for 3 days avoiding direct exposure to the fluorescent light (24 hour photoperiod) to prevent trapping of heat inside the cup. Mortality was assessed 3 days after treatment of the plants.

[4] = tested on: Cotton Aphid (Aphis gossypii); experiment: Activity against cotton aphid, cotton cotyledon dip; assay type: in vivo; conditions: 120 h, cotyledons dipped, after 5 days
Source text: as §1
Cotton plants at the cotyledon stage (one plant per pot) were infested by placing a heavily infested leaf from the main colony on top of each cotyledon. The aphids were allowed to transfer to the host plant overnight, and the leaf used to transfer the aphids was removed. The cotyledons were dipped in the test solution and allowed to dry. After 5 days, mortality counts were made.

[5] = tested on: Vetch Aphid (Megoura viciae); experiment: Activity against vetch aphid, bean leaf disks; assay type: in vivo; conditions: foliar, 144 h, 2500 ppm, leaf disks sprayed with 2.5 μl, 6 days, compared to 0% mortality of untreated controls, read-out: mortality
Description: Bean leaf disks were placed into microtiterplates filled with 0.8% agar-agar and 2.5 ppm OPUS™. The leaf disks were sprayed with 2.5 μl of the test solution and 5 to 8 adult aphids were placed into the microtiterplates which were then closed and kept at 22-24° C. and 35-45% under fluorescent light for 6 days. Mortality was assessed on the basis of vital, reproduced aphids. Tests were replicated 2 times.

[6] = tested on: Yellowfever Mosquito (Aedes aegyptii); experiment: Activity via glass contact; assay type: in vivo
Source text: 10. Activity Against Argentine Ant (Linepithema humile), Harvester Ant (Pogonomyrmex Californicus), Acrobat Ant (Crematogaster Spp.), Carpenter Ant (Camponotus floridanus), Fire Ant (Solenopsis invicta), House Fly (Musca domestica), Stable Fly (Stomoxys calcitrans), Flesh Fly (Sarcophaga sp.), Yellowfever Mosquito (Aedes aegyptii), House Mosquito (Culex quinquefasciatus), Malaria Mosquito (Anopheles albimanus), German Cockroach (Blattella Germanica), Cat Flea (Ctenocephalides felis), and Brown Dog Tick (Rhipicephalus sanguineus) Via Glass Contact
Glass vials were treated with 0.5 ml of a solution of active ingredient in acetone and allowed to dry. Insects or ticks were placed into each vial together with some food and moisture supply.

[7] = tested on: Southern Armyworm (Spodoptera eridania), 2nd Instar Larvae; experiment: whole plant or invertebrate; assay type: in vivo; conditions: in Phaseolus lunatus, foliar, 120 h, 300 ppm, leaf dipped, at 5 days, read-out: mortality
Description: The active compounds were formulated for testing the activity against insects and arachnids as a 10.000 ppm solution in a mixture of 35% acetone and water, which was diluted with water, if needed.
A Sieva lima bean leaf was dipped in the test solution and allowed to dry. The leaf was then placed in a petri dish containing a filter paper on the bottom and ten 2nd instar caterpillars. At 5 days, observations are made of mortality and reduced feeding.

[8] = tested on: Boll Weevil (Anthonomus grandis); experiment: Activity against boll weevil, eggs in microtiterplates; assay type: in vivo; conditions: eggs sprayed with 20 μl test solution, 3 to 5 days
Description: 10 to 15 eggs were placed into microtiterplates filled with 2% agar-agar in water and 300 ppm formaline. […] Mortality was assessed on the basis of the remaining unhatched eggs or larvae on the agar surface and/or quantity and depth of the digging channels caused by the hatched larvae. Tests were replicated 2 times.

[9] = tested on: Yellowfever Mosquito (Aedes aegyptii) Larvae; experiment: Activity against mosquito larvae via water treatment; assay type: in vivo; conditions: 10 ppm, water treatment, 4th-instar larvae, read-out: mortality of yellowfever mosquito
Description: 11. Activity Against Yellowfever Mosquito (Aedes aegyptii), House Mosquito (Culex quinquefasciatus) and Malaria Mosquito (Anopheles albimanus) Larvae Via Water Treatment
Well plates were used as test arenas. The active ingredient was dissolved in acetone and diluted with water to obtain the concentrations needed. The final solutions containing appr. 1% acetone were placed into each well. Approximately 10 mosquito larvae (4th-instars) in 1 ml water were added to each well. Larvae were fed one drop of liver powder each day. The dishes were covered and maintained at 22° C. Mortality was recorded daily and dead larvae and live or dead pupae were removed daily. At the end of the test remaining live larvae were recorded and percent mortality was calculated.

[10] = tested on: Diamond Back Moth (Plutella xylostella); experiment: Activity against diamond back moth, cabbage leaf disk dip; assay type: in vivo; conditions: foliar, 300 ppm, leaf disk dipped, third instar larvae, after 72 h, read-out: mortality
Description: The active compounds were formulated in 50:50 acetone:water and 0.1% (vol/vol) Alkamuls EL 620 surfactant. A 6 cm leaf disk of cabbage leaves was dipped in the test solution for 3 seconds and allowed to air dry in a Petri plate lined with moist filter paper. The leaf disk was inoculated with 10 third instar larvae and kept at 25-27° C. and 50-60% humidity for 3 days. Mortality was assessed after 72 h of treatment.

For Cc1cc(Cl)cc(C(=O)N=S(C(C)C)C(C)C)c1NC(=O)c1cc(C(F)(F)F)nn1-c1ncccc1Cl [I.3-1], the mortality [1] was “over 75%”.

Cc1cc(Cl)cc(C(=O)N=S(C)C)c1NC(=O)c1cc(Br)nn1-c1ncccc1Cl [I.3-4] was tested, and the mortality at 2500 ppm [2] was > 75%, the mortality at 300 ppm [3] was > 90% and the mortality at 300 ppm [4] was > 50%. The mortality at 2500 ppm [5] was > 75%, the mortality at 10 ppm [6] was > 70% and the mortality at 300 ppm [7] was > 75%. The mortality at 2500 ppm [8] was > 75% and the mortality at 10 ppm [9] was > 70%.

With Cc1cccc(C(=O)N=S(C)C)c1NC(=O)c1cc(Br)nn1-c1ncccc1Cl [I.3-7] the mortality at 2500 ppm [2] was > 75%, the mortality at 300 ppm [4] was > 50% and the mortality at 2500 ppm [5] was > 75%. The mortality at 300 ppm [7] was > 75%, the mortality at 2500 ppm [8] was > 75% and the mortality at 10 ppm [9] was > 70%. For the same compound, the mortality at 300 ppm [10] was > 75%.
